The text below walks through data of PubChem BioAssay AID1224921 (Broad Institute, 2016).

The test system of this experiment is Clostridioides difficile clinical isolate growth, OD600, 24 h. Description: C. difficile growth inhibition, confirmation, 4-point retest (AID 1224921).

Structures are written as SMILES. Activity calls are given as the source filed them. How the calls were made is not given here.

`CO[C@H](CN(C)C(=O)C1CC1)[C@@H](C)CN(C(=O)Nc1ccc(C(F)(F)F)cc1)[C@H](C)CO`: the half-maximal activity concentration (AC50) (as a rule, the midpoint of the concentration-response curve, whichever way the signal moves) was 3.59 µM.
With `O=C(C[C@@H]1CC[C@@H]2[C@H](COC[C@H](O)CN2C(=O)Nc2ccc(Cl)c(Cl)c2)O1)NC1CCC1`, the AC50 is 7.33 µM.
As for `O=C(C[C@@H]1CC[C@@H]2[C@H](COC[C@H](O)CN2C(=O)Nc2cc(Cl)cc(Cl)c2)O1)NCC1CC1`, the AC50 was 16.9 µM.
As for `C[C@@H]1CN([C@@H](C)CO)C(=O)c2cc(NC(=O)C3CC3)ccc2O[C@@H]1CN(C)C(=O)Nc1ccc(C(F)(F)F)cc1`, the figure is 8.92 µM; as for `CO[C@H](CN(C)S(=O)(=O)c1cn(C)cn1)[C@H](C)CN(C(=O)Nc1ccc(C(F)(F)F)cc1)[C@@H](C)CO`, 7.66 µM; as for `C[C@@H]1CN([C@@H](C)CO)C(=O)c2cccc(NC(=O)Nc3ccc(C(F)(F)F)cc3)c2O[C@@H]1CN(C)Cc1ccc(Oc2ccccc2)cc1`, below 0.5 µM.
For `C[C@@H]1CN([C@H](C)CO)C(=O)c2cc(NC(=O)Nc3ccc(C(F)(F)F)cc3)ccc2O[C@@H](C)CCCCO[C@@H]1CN(C)CC1CCCCC1` the value was 14.6 µM; for `O=C(C[C@H]1CC[C@H]2[C@@H](COC[C@H](O)CN2C(=O)Nc2ccc(C(F)(F)F)cc2)O1)NCC1CCCCC1`, 2.45 µM; for `O=C(C[C@@H]1CC[C@@H]2[C@H](COC[C@H](O)CN2C(=O)Nc2ccc(C(F)(F)F)cc2)O1)NCC1CCCCC1`, 1.09 µM.
For `CCC(=O)N[C@@H]1CC[C@H](CCNC(=O)Nc2ccc(C(F)(F)F)cc2)O[C@H]1CO` the value was 7.27 µM; for `CCCC(=O)Nc1ccc2c(c1)C(=O)N(C)[C@@H]1CC[C@@H](CC(=O)OC)O[C@@H]1CO2`, > 60 µM (inactive).
As to `CO[C@H]1CN(C)C(=O)c2ccc(NC(=O)c3nc4ccccc4s3)cc2OC[C@H](C)N(Cc2ccncc2)C[C@@H]1C`, the AC50 was > 60 µM (inactive).
As for `C[C@@H]1CN([C@H](C)CO)C(=O)c2cccc(NC(=O)Nc3ccc(C(F)(F)F)cc3)c2O[C@@H]1CN(C)Cc1ccc(-c2ccccc2)cc1`, the figure is 18.3 µM; as for `CNC[C@H]1OCCCC[C@@H](C)Oc2ccc(NC(=O)Nc3ccc(C(F)(F)F)cc3)cc2C(=O)N([C@H](C)CO)C[C@H]1C`, 15.4 µM.
For `C[C@@H]1CCCCO[C@@H](CN(C)CC2CC2)[C@H](C)CN([C@@H](C)CO)C(=O)c2cc(NC(=O)Nc3ccc(C(F)(F)F)cc3)ccc2O1` the value was 17.6 µM; for `Cc1noc(C)c1NC(=O)Nc1cccc2c1O[C@H](CN(C)Cc1ccc(Oc3ccccc3)cc1)[C@H](C)CN([C@@H](C)CO)C2=O`, 9.38 µM; for `O=C(C[C@@H]1CC[C@@H]2[C@H](COC[C@@H](O)CN2C(=O)Nc2ccc(Cl)c(Cl)c2)O1)NCc1ccc(Cl)cc1`, 0.98 µM.
For the molecule `C[C@@H]1CCCCO[C@H](CN(C)Cc2ccc3c(c2)OCO3)[C@@H](C)CN([C@@H](C)CO)C(=O)c2cc(NS(=O)(=O)c3cccs3)ccc2O1`, the AC50 was 13.8 µM.
As for `O=C1C[C@@](C(=O)NCCN2CCOCC2)(c2ccc([N+](=O)[O-])cc2)[C@@H](c2ccc(CO)cc2I)N1CC12CC3CC(CC(C3)C1)C2`, the figure is 18.8 µM.
For `CO[C@H]1CN(C)C(=O)c2ccc(NC(=O)c3cccc(F)c3)cc2OC[C@@H](C)N(C(C)=O)C[C@@H]1C` the value was > 60 µM (inactive); for `CCNC(=O)C[C@@H]1CC[C@@H]2[C@H](COC[C@@H](O)CN2C(=O)Nc2ccc(C(F)(F)F)cc2)O1`, 13.6 µM; for `CC(=O)N[C@@H]1CC[C@@H](CCNC(=O)Nc2ccc(C(F)(F)F)cc2)O[C@@H]1CO`, 8.39 µM.
Regarding `COc1ccccc1CNC(=O)C[C@H]1CC[C@@H]2[C@H](COC[C@H](O)CN2C(=O)Nc2ccc(C(F)(F)F)cc2)O1`, the concentration at half-maximal activity (AC50) is 1.04 µM.
Regarding `CC(C)NC(=O)N1[C@H](CO)[C@@H](c2ccc(-c3ccc(F)cc3)cc2)[C@@H]1C#N`, the AC50 was 22.6 µM.
For `CCC(=O)N[C@H]1CC[C@H](CCNC(=O)Nc2ccc(C(F)(F)F)cc2)O[C@@H]1CO` the value was 3.05 µM; for `O=C(C[C@@H]1CC[C@@H]2[C@H](COC[C@@H](O)CN2C(=O)Nc2ccc(C(F)(F)F)cc2)O1)NC1Cc2ccccc2C1`, 2.27 µM.
As for `Cn1cnc(CCNC(=O)C[C@@H]2CC[C@@H]3[C@H](COC[C@H](O)CN3C(=O)Nc3ccc(C(F)(F)F)cc3)O2)c1`, the figure is 19.6 µM; as for `O=C(C[C@H]1CC[C@H]2[C@@H](COC[C@H](O)CN2C(=O)Nc2ccc(Cl)c(Cl)c2)O1)NCc1ccc(Cl)c(Cl)c1`, 0.886 µM.
In the case of `O=C(C[C@H]1CC[C@H]2[C@@H](COC[C@H](O)CN2C(=O)Nc2ccc(Cl)c(Cl)c2)O1)NCc1ccc(Cl)cc1`, the concentration at half-maximal activity (AC50) is 1.07 µM.
Consider `O=C(C[C@@H]1CC[C@@H]2[C@H](COC[C@@H](O)CN2C(=O)Nc2ccc(Cl)c(Cl)c2)O1)NC1CCC1`, for which the AC50 is 2.82 µM.
Regarding `O=C(C[C@@H]1CC[C@@H]2[C@H](COC[C@@H](O)CN2C(=O)Nc2ccc(C(F)(F)F)cc2)O1)NCCc1ccncc1`, the AC50 was 4.07 µM.
Take `N#C[C@H]1[C@@H](c2ccc(C#Cc3cccc(F)c3)cc2)[C@H](CO)N1C(=O)C1CCC1`: the AC50 is 26.4 µM.
For `CCCNC(=O)C[C@H]1CC[C@@H]2[C@H](COC[C@@H](O)CN2C(=O)Nc2ccc(Cl)c(Cl)c2)O1` the value was 2.91 µM; for `O=C(C[C@H]1CC[C@H]2[C@@H](COC[C@@H](O)CN2C(=O)Nc2cc(Cl)cc(Cl)c2)O1)NCC1CC1`, 10.9 µM.
For `CO[C@H](CN(C)C(=O)C1CCOCC1)[C@H](C)CN(C(=O)Nc1ccc(C(F)(F)F)cc1)[C@@H](C)CO` the value was 4.13 µM; for `O=C(NCC[C@H]1CC[C@H](NC(=O)c2cccnc2)[C@H](CO)O1)Nc1ccc(C(F)(F)F)cc1`, 1.6 µM; for `O=C(NCC[C@H]1CC[C@@H](NC(=O)c2cccnc2)[C@H](CO)O1)Nc1ccc(C(F)(F)F)cc1`, 2.42 µM.
For `CO[C@@H]1CN(C)C(=O)c2cc(NC(=O)Nc3ccc(Cl)c(Cl)c3)ccc2OC[C@@H](C)NC[C@@H]1C` the value was 4.25 µM; for `C[C@@H]1CN([C@@H](C)CO)C(=O)c2cc(NS(=O)(=O)c3ccc(Cl)cc3)ccc2O[C@@H](C)CCCCO[C@H]1CN(C)CC1CCCCC1`, 13.1 µM; for `CCCNC(=O)C[C@@H]1CC[C@H]2[C@@H](COC[C@H](O)CN2C(=O)Nc2ccc(Cl)c(Cl)c2)O1`, 5.98 µM.
In the case of `O=C(NCC[C@@H]1CC[C@H](NC(=O)c2cccnc2)[C@@H](CO)O1)Nc1ccc(C(F)(F)F)cc1`, the AC50 is 17 µM.
For `O=C(C[C@@H]1CC[C@H]2[C@@H](COC[C@H](O)CN2C(=O)Nc2ccc(Cl)c(Cl)c2)O1)NCc1ccncc1` the value was 3.77 µM.
Take `CO[C@H]1CN(C)C(=O)c2cc(NC(=O)Nc3ccc(Cl)c(Cl)c3)ccc2OC[C@@H](C)NC[C@H]1C`: the concentration at half-maximal activity (AC50) is 9.16 µM.
As for `O=C(C[C@@H]1CC[C@@H]2[C@H](COC[C@H](O)CN2C(=O)Nc2ccc(C(F)(F)F)cc2)O1)NCCc1ccncc1`, the figure is 3.46 µM.
As for `C[C@H]1CCCCO[C@H](CN(C)Cc2ccccc2)[C@@H](C)CN([C@@H](C)CO)C(=O)c2cc(NC(=O)Nc3ccc(C(F)(F)F)cc3)ccc2O1`, the figure is 18.2 µM.
On to `C[C@@H]1CCCCO[C@@H](CN(C)Cc2ccccc2)[C@H](C)CN([C@H](C)CO)C(=O)c2cc(NC(=O)Nc3ccc(C(F)(F)F)cc3)ccc2O1`, for which the AC50 is 21.9 µM.
As for `CO[C@H](CN(C)C(=O)C1CC1)[C@H](C)CN(C(=O)Nc1ccc(C(F)(F)F)cc1)[C@H](C)CO`, the figure is 2.98 µM; as for `CO[C@H](CN(C)C(=O)C1CCOCC1)[C@@H](C)CN(C(=O)Nc1ccc(C(F)(F)F)cc1)[C@H](C)CO`, 0.831 µM; as for `C[C@@H]1CCCCO[C@@H](CN(C)CC2CC2)[C@H](C)CN([C@H](C)CO)C(=O)c2cc(NC(=O)Nc3ccc(C(F)(F)F)cc3)ccc2O1`, 15.9 µM.
